Experimental data: PubChem BioAssay (NCI)
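A five-concentration, 48-hour dose response in 96-well plates underlies each endpoint, interpolated linearly between surrounding concentrations. GI50 is the concentration that inhibits growth by half. TGI marks complete inhibition of growth.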

Experiments:
Experiment in all cases: NCI-60 cell line screen, 48 h
SN12C renal = tested on: SN12C renal
MCF7 breast = tested on: MCF7 breast
UACC-62 melanoma = tested on: UACC-62 melanoma
786-0 renal = tested on: 786-0 renal
NCI-H226 lung = tested on: NCI-H226 lung
OVCAR-5 ovarian = tested on: OVCAR-5 ovarian
SW-620 colon = tested on: SW-620 colon
TK-10 renal = tested on: TK-10 renal

Row | SMILES | GI50 (SN12C renal) | TGI (SN12C renal) | GI50 (MCF7 breast) | TGI (MCF7 breast) | GI50 (UACC-62 melanoma) | TGI (UACC-62 melanoma) | GI50 (786-0 renal) | TGI (786-0 renal) | GI50 (NCI-H226 lung) | TGI (NCI-H226 lung) | GI50 (OVCAR-5 ovarian) | TGI (OVCAR-5 ovarian) | GI50 (SW-620 colon) | TGI (SW-620 colon) | GI50 (TK-10 renal) | TGI (TK-10 renal)
1 | O=C1NC(c2ccccc2)C2(C(=O)O)CN(C3CC3)c3cc(N4CCNCC4)c(F)cc3C2N1 (centres undefined) | > 100 µM | > 100 µM | > 100 µM | > 100 µM | > 100 µM | > 100 µM | > 100 µM | > 100 µM | > 100 µM | > 100 µM | > 100 µM | > 100 µM | > 100 µM | > 100 µM | > 100 µM | > 100 µM
2 | CCn1c(-c2nonc2N)nc2c(N3CCCC3)nccc21 | 15 µM | > 25 µM | 5.27 µM | > 25 µM | 16.2 µM | > 25 µM | > 18.6 µM | > 25 µM | 10 µM | > 25 µM | 12.5 µM | > 25 µM | 8.07 µM | > 25 µM | 9.31 µM | > 25 µM
3 | COc1ccc(-c2cc(=O)c3c(O)c(OC)c(OC)c(OC)c3o2)cc1 |  | > 100 µM |  | > 100 µM |  | > 100 µM |  | > 100 µM |  | > 100 µM |  | > 100 µM |  | > 100 µM |  | > 100 µM
4 | CN1CCN(CCCOc2cc(O)c3c(=O)cc(-c4ccccc4)oc3c2)CC1 | 18.9 µM | 41.3 µM | 15.3 µM | 30 µM | 16.3 µM | 29.9 µM | 20.6 µM | 43.3 µM | 19.5 µM | 37 µM | 20.3 µM | 43.6 µM | 19.5 µM | 42.4 µM | 20.5 µM | 48.3 µM
5 | COc1ccc(S(=O)(=O)N(C(C)=O)c2ccccc2/C=C/c2cc[n+]([O-])cc2)cc1 | 1.61 µM | > 10 µM | 0.428 µM | > 10 µM | 0.457 µM | > 10 µM | 1.67 µM | > 10 µM | 2.48 µM | > 10 µM | 3.26 µM | > 10 µM | 0.559 µM | > 10 µM |  | > 10 µM
6 | COC(C)C(O)(C(=O)OCC1=CCN2CCC(O)C12)C(C)(C)O (centres undefined) |  | > 100 µM |  | > 100 µM |  | > 100 µM |  | > 100 µM |  | > 100 µM |  | > 100 µM |  | > 100 µM |  | > 100 µM
7 | CC(C)(C)OC(=O)Nc1ccc2c(c1)C(NC(=O)Nc1cccc(C#N)c1)CC(C)(C)O2 (centres undefined) | 4.57 µM | > 100 µM | 1.92 µM | 30.7 µM | 0.834 µM | 17 µM | 5.05 µM | > 100 µM | 2.29 µM | 42.8 µM | 28 µM | > 100 µM | 3.61 µM | > 100 µM | 6.14 µM | > 100 µM
8 | COc1c(N2CCN(CN3C(=O)C(=Nc4ccc(S(=O)(=O)Nc5ncccn5)cc4)c4cc(Cl)ccc43)C(C)C2)c(F)cc2c(=O)c(C(=O)O)cn(C3CC3)c12 (centres undefined) | 10.6 µM | 27.5 µM | 11.9 µM | 44.4 µM | 13.7 µM | 49.9 µM | 19.2 µM | > 50 µM | 30 µM | > 50 µM | > 50 µM | > 50 µM | 10.7 µM | 44.7 µM | 13.3 µM | 35.2 µM
9 | CCOC(=O)/C=C/c1cccc(F)c1 |  | > 100 µM |  | > 100 µM |  | > 100 µM |  | > 100 µM |  | > 100 µM |  | > 100 µM |  | > 100 µM |  | > 100 µM
